Experimental data published in patent US10434074B2, “Peptide and small molecule agonists of EPHA and uses thereof” (CASE WESTERN RESERVE UNIVERSITY, priority 2004, dated 2019).
“Also recorded” adds a separate entry of the source. Where no end group is shown, it is not given here.

Legend:
EphA2 [1] = biological target: T1, EphA2 (Homo sapiens, UniProt P29317); assay: EphA2 tyrosine phosphorylation (activation) in PC3 cells, immunoprecipitation and anti-phosphotyrosine blot; format: cell-based; design: We have previously identified EphA2 as the primary EphA kinase expressed in PC-3 cells; endogenous in cells; host or cells: PC-3 (PC3) and DU-145 cells; conditions: for EphA2 activation (agonist function): PC-3 cells, PY99 blot; for EphA2 tyrosine phosphorylation: several different cell lines
Protocol: FIG. 9 illustrates EP1 is an EphA2 Kinase Agonist. PC3 cells (1×10^6 cells/ml) were stimulated with different concentrations of EP1-Fc, GST-EP1, or ephrin-A1-Fc for 10 min. EphA2 was precipitated with anti-EphA2. The immune complex was blotted for PY to detect EphA2 activation (top panel), or for EphA2 to show equal loading (lower panel). Data represents one of three similar experimental results.
FIG. 15 illustrates Identification of EP1 residues critical for EphA2 activation. Four out of five EP1 residues that align with receptor-binding regions of ephrins are critical for EphA2 activation. Mutation to alanine was performed at the indicated positions (see letters in FIG. 15 for reference), and the resultant EP1-Fc mutants were used to stimulate PC3 cells for 10 min at […] for ability to activate EphA2.
PC-3 cells were stimulated with the indicated concentration of dobutamine. EphA2 was immunoprecipitated and tested for activation status by blotting with anti-phosphotyrosine (PY99).
Cells cultured in 6 well plates at 70-80% confluence were stimulated with 0.5 μg/ml Fc, 1 μg/ml epnrinA1-Fc or 20 ng/ml HGF/SF or their combinations as indicated. After stimulation, cells were lysed in RIPA buffer (20 mM Tris, pH7.4, 125 mM NaCl, 20 mM NaF, 0.1% SDS, 10% glycerol, 0.5% sodium deoxycholate, and 1% TX-100, 0.5 mM Na3VO4) containing protease inhibitors (1 mM phenylmethylsulphonyl fluoride, and 2 μg/ml each of aprotinin and leupeptin). Cell lysates were clarified by centrifugation at 13,000 rpm for 5 min. Immunoprecipitation was carried out by adding anti-EphA2 antibody to clarified cell lysates and incubated for 1 hour at 4° C. The immunocomplex was captured using γ-bind beads (Pharmacia). Cell lysates or precipitated proteins were separated on 4-20% Tris-glycine gels (Invitrogen) and transferred to Immobilon-P PVDF membranes (Millipore). […] For quantitative analysis, band densities were measured using KODAK 1D imagine analysis software (Eastman Kodak Company).

[2] = biological target: EphA2 kinase ligand-binding domain (Homo sapiens, UniProt P29317); assay: BIAcore binding to immobilized EphA2 ligand-binding domain; conditions: EphA2 LBD immobilized on sensor chip
Protocol: A) EphA2 activation by labetalol. […] The increasing concentrations of labetalol (0, […], 1.25 mM and 2.5 mM) were injected over EphA2 kinase ligand-binding domain immobilized on the sensor chip.
A) Doxazosin activates EphA2.

EphA2 [3] = conditions: several breast cancer cell lines; cited from earlier work
GFP-PC-3 cells = assay: PC3 xenograft growth in nude mice; format: in vivo; design: s.c. tumor growth: dose or concentration left out as unconfirmed; conditions: for s.c. tumor growth: vs human IgG
Description: Frozen sections were stained with biotinylated rabbit anti-human Fc, and HRP-conjugated streptoavidin.

EphA2 [4] = biological target: T1, EphA2; assay: Precipitation of 125I-labeled PC3 cell proteins / Western blot (binding specificity); design: We have previously identified EphA2 as the primary EphA kinase expressed in PC-3 cells; endogenous in cells; host or cells: PC-3 (PC3); conditions: PC3 cell lysates
Protocol: FIGS. 8(A-B) illustrate Specific Binding of EP1-Fc to EphA2 Receptor. A: ^125I labeling of PC3 cells. PC3 cells (10×10^6) were labeled with 125I (0.5 mCi). Then, cell lysates were incubated with EP1-Fc fusion peptide, ephrin-A1-Fc (EA1-Fc), or human Fc as indicated. Equal amount of cell lysate was used in each experimental group. […] B: Western Blotting Analysis. PC3 cell lysates were incubated with EP1-Fc fusion protein, ephrin-A1 protein, or human Fc. The immune complexes were blotted with anti-EphA2. EP1 specifically precipitated EphA2.

PC3 or pRNS-1 cells = assay: 3H-thymidine incorporation; format: cell-based; conditions: overnight stimulation
Protocol: Subconfluent PC3 or pRNS-1 cells were stimulated with the indicated reagents overnight. Next day cells were labeled with ^3H-thymidine for 2 hours. ^3H-thymidine incorporation into isolated DNA synthesis was determined by scintillation counting.

PC3 cells = assay: Cell rounding; format: cell-based, human; conditions: 10 min
Protocol: PC3 cells cultured on coverslips were stimulated with the indicated concentrations of ephrinA1-Fc, EP1-Fc of Fc for 10 min. Cells were then fixed and photographed.

[5] = system: pRNS-1 prostate epithelial cells; assay: Clonal growth, crystal violet staining; format: cell-based; conditions: 10 days
Protocol: About 80 pRNS-1 prostate epithelial cells were seeded into each well on 12-well dishes in the presence of indicated concentrations of ephrin-A1-Fc. Cells were cultured for 10 days. Clonal growth was visualized by crystal violet staining.

[6] = system: integrin-mediated cell adhesion; assay: Integrin-mediated cell adhesion to fibronectin; format: cell-based
ERK1/2 = assay: Inhibition of ERK1/2 (MAPK) in PC3 cells, anti-p-ERK1/2 blot; format: cell-based, human
Description: FIG. 11 illustrates Activation of EphA2 downstream signaling by EP1-Fc. PC3 cells were stimulated with the indicated concentrations of ephrinA1-Fc or EP1-Fc fusion proteins and lysed in RIPA buffer. EphA2 activation status was examined by immunoprecipiting EphA2 and blotting for phosphotyrosine or EphA2 itself (top panel). Inhibition of ERK1/2, a downstream signaling event of EphA2 characterized in our lab, was examined by blotting total cell lysates with anti-p-ERK1/2.

T1 sequence (P29317 24-976): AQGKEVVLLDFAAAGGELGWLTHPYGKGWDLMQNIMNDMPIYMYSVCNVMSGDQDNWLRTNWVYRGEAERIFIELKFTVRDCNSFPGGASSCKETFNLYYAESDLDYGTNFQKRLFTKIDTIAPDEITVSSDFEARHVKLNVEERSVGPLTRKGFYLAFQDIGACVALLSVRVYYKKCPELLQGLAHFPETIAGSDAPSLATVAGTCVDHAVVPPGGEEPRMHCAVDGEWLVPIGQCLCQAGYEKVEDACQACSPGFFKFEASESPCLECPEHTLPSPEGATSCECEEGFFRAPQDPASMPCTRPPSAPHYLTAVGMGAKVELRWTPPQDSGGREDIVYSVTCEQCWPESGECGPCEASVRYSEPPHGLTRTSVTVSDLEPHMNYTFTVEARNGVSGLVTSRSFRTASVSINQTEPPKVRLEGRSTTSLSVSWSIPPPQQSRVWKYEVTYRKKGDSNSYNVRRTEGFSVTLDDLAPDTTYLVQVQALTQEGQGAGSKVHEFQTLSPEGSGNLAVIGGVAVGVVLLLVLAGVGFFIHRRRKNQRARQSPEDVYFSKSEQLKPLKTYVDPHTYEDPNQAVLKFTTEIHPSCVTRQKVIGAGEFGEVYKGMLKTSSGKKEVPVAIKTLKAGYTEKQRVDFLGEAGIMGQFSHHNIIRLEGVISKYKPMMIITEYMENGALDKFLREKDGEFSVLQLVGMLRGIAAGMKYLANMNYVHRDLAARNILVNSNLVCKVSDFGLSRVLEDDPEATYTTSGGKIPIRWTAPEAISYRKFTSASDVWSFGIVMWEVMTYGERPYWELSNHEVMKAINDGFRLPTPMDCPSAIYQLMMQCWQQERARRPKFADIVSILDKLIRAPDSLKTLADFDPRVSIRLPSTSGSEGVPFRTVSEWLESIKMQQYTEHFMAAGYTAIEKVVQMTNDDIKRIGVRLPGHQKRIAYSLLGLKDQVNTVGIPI
EphA2 kinase ligand-binding domain, sequence (P29317 28-206 limits assumed): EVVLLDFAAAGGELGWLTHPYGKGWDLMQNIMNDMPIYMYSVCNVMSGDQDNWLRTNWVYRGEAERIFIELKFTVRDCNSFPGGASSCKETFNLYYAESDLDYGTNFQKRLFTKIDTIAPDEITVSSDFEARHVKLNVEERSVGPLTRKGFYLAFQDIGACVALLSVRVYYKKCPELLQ

## CC(CCc1ccc(O)cc1)NCCc1ccc(O)c(O)c1 (stereo not shown) [Dobutamine]
EphA2 [1]
  EphA2 activation (agonist function): EphA2 agonists

## COc1cc2nc(N3CCN(C(=O)C4COc5ccccc5O4)CC3)nc(N)c2cc1OC (stereo not shown) [Doxazosin]
EphA2 [1]
  EphA2 activation (agonist function): EphA2 agonists
[2]
  BIAcore binding to EphA2: direct binding

## CC(CCc1ccccc1)NCC(O)c1ccc(O)c(C(N)=O)c1 (stereo not shown) [Labetalol]
EphA2 [1]
  EphA2 activation (agonist function): EphA2 agonists
[2]
  BIAcore binding to EphA2: binding curves for interaction of labetalol with EphA2 kinase

## N#CC(=C(/N)Sc1ccccc1N)/C(C#N)=C(/N)Sc1ccccc1N [U1026]
EphA2 [3]
  EphA2 expression: reduced EphA2 expression

## (di-meo-isoquinolin-1-ylmethyl)-et-di-meo-pyrido(2,1-a)isoquinolin, hydrobromide S120103
EphA2 [1]
  EphA2 activation (agonist function): EphA2 agonistic compound

## EP1-Fc: recombinant EP1 fused to Fc, dimeric (RRCVWSTNVYSMEPALFCAA; not fully specified; cysteine pairing not given here; also: fused to Fc, dimeric)
EphA2 [1]
  EphA2 tyrosine phosphorylation: induces dose-dependent EphA2 tyrosine phosphorylation
GFP-PC-3 cells; frozen sections stained with anti-human Fc
  targeting to tumors: target to GFP-PC-3 tumors
GFP-PC-3 cells; i.p.
  tumor growth after three weeks of treatment: lack of effects after three weeks of treatment
  s.c. tumor growth: moderate inhibitory effects on PC3 xenograft growth
GFP-PC-3 cells; i.p., listed as Ep1-Fc
  s.c. tumor growth: could have suppressive effect on the growth of prostate cancer xenograft
EphA2 [4]
  specificity of binding among cell surface proteins: only bound to EphA2
PC3 or pRNS-1 cells
  cell proliferation / growth: Inhibition of cell proliferation
PC3 cells
  cell morphology (rounding): adapt a round morphology; also recorded: induced PC3 cell rounding
[5]
  clonal cell growth: Inhibition of cell growth

## EphA2-binding peptide from X2CX14CX2 phage display library, SEQ ID NO: 1, RRCVWSTNVYSMEPA LFCAA (RRCVWSTNVYSMEPALFCAA) [EP1]
[6]
  integrin function and cell adhesion: suppressed integrin function and causes reduced cell adhesion
EphA2 [1]
  EphA2 tyrosine phosphorylation: binds to EphA2 without activating it
ERK1/2
  mitogen-activated protein kinase (MAPK): inhibited mitogen-activated protein kinase
EphA2 [4]
  specificity of binding among cell surface proteins: EphA2 was the only cell surface protein that was targeted by EP1
PC3 or pRNS-1 cells
  cell proliferation / growth: inhibited cancer cell growth

## GST-EP1: recombinant EP1 fused to GST (RRCVWSTNVYSMEPALFCAA; cysteine pairing not given here; also: fused to GST)
EphA2 [1]
  EphA2 tyrosine phosphorylation: induces dose-dependent EphA2 tyrosine phosphorylation
